Test results from US20210079476A1, “BIOMARKERS OF RENAL OSTEODYSTROPHY TYPE” (The Trustees of Columbia University in the City of New York, priority 2018, published 2021).
Entries after “also recorded” stand apart in the source; their conditions may differ.

How the values were obtained:
Cy/+ (CKD) rat = conditions: Cy/+ CKD rat model; cited from earlier work
CKD rats (Cy/+) [1] = conditions: Cy/+ rat model; cited from earlier work
CKD rats (Cy/+) [2] = assay: Cy/+ rat model of CKD: bone turnover by histomorphometry after treatment; assay type: in vivo
From the text: (§1) The Cy/+ rat model of CKD was used to assess bone expression of miRNAs. Cy/+ rats are characterized by an autosomal dominant progressive cystic kidney disease that is […] with human ADPKD(63). […] The Cy/+IU colony of rats has been bred for nearly 20 years. The model recapitulates CKD-MBD with progressive kidney disease, hyperphosphatemia, secondary hyperparathyroidism, elevated FGF-23, resulting in ROD and vascular calcification. Importantly, the slowly progressive nature of the model allows for examination of interventions that differentially affect bone remodeling. […] In brief, CKD animals (n=8-10 each group) began treatment at 25 weeks for a total of 10 weeks and received 1) no treatment (control CKD=high PTH/high turnover, 2) 3% calcium in the drinking water (CKD/Ca group=low PTH/low turnover), or 3) a single injection of zoledronic acid (CKD/Zol group=high PTH/low turnover). At 35 weeks of age, animals were euthanized and bone tissue were collected. Bone histomorphometry as previously reported (67). RNA was isolated from tibia and bone miRNA expression determined by real time PCR using TaqMan miRNA assay as above.
The Cy/+ rat model of CKD was used to assess bone expression of miRNAs. […] The Cy/+IU colony of rats has been bred at Indiana University for nearly 20 years. […]

[3] = test system: miRNA 30b, 30c, 125b and 155; assay type: in vivo, rat; conditions: CKD rats
From the text: as §1
The Cy/+ rat model of CKD was used to assess bone expression of miRNAs. […] The Cy/+IU colony of rats has been bred at Indiana University for nearly 20 years. The model recapitulates CKD-MBD with progressive kidney disease, hyperphosphatemia, secondary hyperparathyroidism, elevated FGF-23, resulting in ROD and vascular calcification. Importantly, the slowly progressive nature of the model allows for examination of interventions that differentially affect bone remodeling. Specifically, we have induced low turnover bone remodeling by two methods: with calcium in the drinking water (calcium binders) and zoledronic acid.^41, 42 In brief, CKD animals (n=8 to 10 each group) began treatment at 25 weeks for a total of 10 weeks and received: (i) no treatment (control CKD=high PTH/high turnover; (ii) 3% calcium in the drinking water (CKD/Ca group=low PTH/low turnover); or (iii) a single injection of 20 μg/kg of zoledronic acid (CKD/Zol group=high PTH/low turnover). At 35 weeks of age, animals were euthanized and bone tissue was collected. Bone histomorphometry was performed as previously reported.^43 RNA was isolated from tibia, and bone miRNA expression was determined by real-time PCR using TaqMan miRNA assay as described above. All procedures were reviewed and approved by the Indiana University School of Medicine Institutional Animal Care and Use Committee.

Structure (SMILES)	suppressing bone turnover (Cy/+ (CKD) rat)	induction of low turnover bone remodeling (CKD rats (Cy/+) [1])	PTH status of the treated group (CKD rats (Cy/+) [2]; same treatment groups, untreated CKD = high PTH)	type of bone turnover induced by the intervention (histomorphometry) (CKD rats (Cy/+) [2]; treatment from 25 weeks of age for 10 weeks, 3% calcium in drinking water or single injection of zoledronic acid, untreated CKD = high turnover)	levels of miRNAs, low turnover induced by dietary calcium compared with zoledronic acid ([3]; bone tissue)	bone-tissue expression of miRNA-30b vs rats with high turnover ([3]; tibia, 35 weeks of age)	bone-tissue expression of miRNA-30c vs rats with high turnover ([3]; tibia, 35 weeks of age)	bone-tissue expression of miRNA-125b vs rats with high turnover ([3]; tibia, 35 weeks of age)	bone-tissue expression of miRNA-155 vs rats with high turnover ([3]; tibia, 35 weeks of age)
C=C1/C(=C\C=C2/CCC[C@]3(C)[C@@H]([C@H](C)CCCC(C)(C)O)CC[C@@H]23)C[C@@H](O)C[C@@H]1O [Calcitriol]	not effective								
[Ca+2] [calcium]		low turnover bone remodeling has been induced	low PTH	low turnover	did not differ	low expression; also recorded: lower	low expression; also recorded: lower	low expression; also recorded: lower	low expression; also recorded: lower
